Laboratory results reported in paper PMC10885983 (Antibiotics, 2024).
Values after ≈ are worked out from the molar mass of the structure shown. Like-named read-outs stand apart in the source and are kept apart here.

Assays:
[1] = design: method as in PMID 26312207; details: humans; cited from earlier work
[2] = cited from earlier work
[3] = Bench-top stability in plasma at 25 °C; assay type: in vitro ADME, rat; details: for Bench-top stability, Accuracy (%): n = 5
Protocol: The mean recovery was determined at low, medium and high concentrations from five replicates. The long-term storage stability at −80 °C was determined after 15, 30, 60 and 90 d. Bench-top stability testing was also conducted. […] The freeze–thaw cycles were stabilized. Rhodomyrtone was spiked in blank plasma, then stored in a freezer (−20 °C) and thawed every 24 h at room temperature (25 °C) for three cycles prior to extraction.

[4] = Pharmacokinetics of rhodomyrtone in rats after a single oral dose (HPLC-UV plasma analysis, non-compartment model); assay type: in vivo, Sprague Dawley rats; details: for AUC(0-t): read-out: AUC0–8; for Tmax / Vd/F: po; for k el: read-out: λz (converted)
Protocol: The HPLC method was used to quantify the concentration of rhodomyrtone in rat plasma after a single oral administration of 50 and 100 mg/kg. Blood samples were collected from tail veins at 0, 0.25, 0.5, 1, 2, 3, 4, 5, 6, 7 and 8 h. Rat plasma samples were prepared as described in Section 3.3. Rhodomyrtone was analyzed using a Bondapak C18 HPLC column at 25 °C. […] After several trials, the mobile phase was optimized to achieve good resolution and symmetric peak shapes for both rhodomyrtone and papaverine. […] An appropriate wavelength at 302 nm gave good sensitivity, with no interfering substance of other components. […] The curve of the rhodomyrtone concentration–time profiles was fitted in a non-compartment pharmacokinetic model due to the whole organism as a single compartment where the drug distributes homogeneously and instantaneously, resulting in a constant volume of distribution. The non-compartment model is multifaceted, and it is acceptable for bioequivalence studies.
An aliquot of each rat plasma sample (100 µL) or validation sample was pipetted into a 1.5 mL microcentrifuge tube, spiked with 25 µL papaverine working standard, then the rat plasma was deproteinized with 75 µL acetonitrile, mixed for 30 s and dropped off 5 min to precipitate the protein. The insoluble content was separated from plasma by centrifugation at 5000× g at 10 °C for 15 min, and we collected the supernatant. All samples were filtered through a 0.22 μm PTFE membrane filter. Subsequently, each sample was transferred into glass insert vials. The HPLC injection volume was 80 µL.
HPLC system consisted of Waters Alliance 2695, a model 2487 UV-Vis detector (Waters Associates, Milford, MA, USA). The maximum UV absorbance of rhodomyrtone was detected from 250 to 310 nm. Therefore, the detection wavelength was set at wavelength 302 nm. The chromatographic data were collected and analyzed using Millenium 32® software. Waters Bondapak C18 column, 5 μm, 4.6 mm × 150 mm, was used to set the standard for HPLC drug analytical measurement procedure. The mobile phase consisted of a mixture of acetonitrile and deionized water (80:20% v/v). The mobile phase was pre-filtered through a 0.20 μm filter and was delivered at a rate of 1 mL/min.
Male Sprague Dawley rats weighing 250–350 g were housed in separate stainless cages under a controlled environment (temperature at 22 ± 2 °C and relative humidity of 55 ± 10% with 12 h light and 12 h dark cycles) at the Southern Laboratory Animal Facility, Faculty of Science, Prince of Songkla University, Thailand. During the experimental period, they received a standard rodent diet with free access to ad libitum drinking water. Rats were divided into two groups, each consisting of 12 animals. Each group received a single oral dose of rhodomyrtone (dissolved in medium-chain triglyceride) at 50 mg/kg body weight (Group 1) and 100 mg/kg body weight (Group 2). The animals were fasted for 10 h prior to the experiment. An initial blood sample was taken by clipping the end of the animals’ tails. Blood samples (500 μL) were collected at time intervals of 0 (predose), 0.25, 0.5, 1, 2, 3, 4, 5, 6, 7 and 8 h. The samples were transferred to a heparinized microcentrifuge tube and centrifuged at 2500× g at 10 °C for 10 min. The plasma samples were stored at −80 °C until HPLC analysis.
The individual plasma concentration–time profiles were visually inspected to determine the maximum plasma concentration (Cmax), the minimum plasma concentration (Cmin) and the time to maximum plasma concentration (tmax). WinNonlin Version 1.1 (Scientific Consulting, Apex, NC, USA) was used to analyze the data and calculate for elimination half-life time (t1/2), elimination rate constant (λz), volume of distribution (Vz/F), area under the concentration–time curve between 0 and 8 h (AUC0–8) and the area under the concentration–time curve between 0 and infinity (AUC0–∞). The results were expressed as mean values ± standard deviation (SD).

[5] = Freeze–thaw stability in plasma; assay type: in vitro ADME, rat; details: n = 5
Protocol: (§1) The mean recovery was determined at low, medium and high concentrations from five replicates. The long-term storage stability at −80 °C was determined after 15, 30, 60 and 90 d. Bench-top stability testing was also conducted. Samples were spiked in blank plasma and extracted, then analyzed in three replications at 25 °C for 0, 1, 2, 4, 6 and 8 h. The freeze–thaw cycles were stabilized. Rhodomyrtone was spiked in blank plasma, then stored in a freezer (−20 °C) and thawed every 24 h at room temperature (25 °C) for three cycles prior to extraction.

S. aureus or MRSA = system: S. aureus or MRSA; design: method as in PMID 23029218; details: 45 passages of stepwise isolation of S. aureus or MRSA on Luria-Bertani agar with rhodomyrtone; cited from earlier work
MRSA clinical isolated = details: cited from earlier work
Bacillus cereus = system: Bacillus cereus; design: method as in PMID 34067029; details: cited from earlier work
[6] = design: method as in PMID 32793420; details: cited from earlier work
MRSA = details: cited from earlier work
Streptococcus mutans = system: Streptococcus mutans; design: method as in PMID 19303274; details: cited from earlier work
[7] = Long-term storage stability in plasma at −80 °C; assay type: in vitro ADME, rat; details: after 15, 30, 60 and 90 d
Protocol: as §1

staphylococcal isolates = details: most staphylococcal isolates; no reference given; cited from earlier work
[8] = system: Staphylococcus epidermidis ATCC 35984 (biofilm positive); design: method as in PMID 34067029; details: cited from earlier work
[9] = system: Staphylococcus aureus clinical isolated; design: method as in PMID 30583020; details: cited from earlier work
[10] = system: Staphylococcus aureus ATCC 29213; design: method as in PMID 23019189, PMID 34067029; details: cited from earlier work
[11] = rat, in vivo, po, cited from earlier work
[12] = male, Sprague Dawley, plasma, rat, single oral dose 50 mg/kg, n = 12
[13] = male, Sprague-Dawley, plasma, rat, single oral dose 50 mg/kg, n = 12
[14] = male, Sprague-Dawley, plasma, rat, single oral dose 100 mg/kg, n = 12

## CN[C@H](CC(C)C)C(=O)N[C@H]1C(=O)N[C@@H](CC(N)=O)C(=O)N[C@H]2C(=O)N[C@H]3C(=O)N[C@H](C(=O)N[C@H](C(=O)O)c4cc(O)cc(O)c4-c4cc3ccc4O)[C@H](O)c3ccc(c(Cl)c3)Oc3cc2cc(c3O[C@@H]2O[C@H](CO)[C@@H](O)[C@H](O)[C@H]2O[C@H]2C[C@](C)(N)[C@H](O)[C@H](C)O2)Oc2ccc(cc2Cl)[C@H]1O [vancomycin]
[1]
  oral bioavailability: < 10%
[2]; intramuscular and intraperitoneal administration
  half-life: 0.6 h
[2]; rats
  oral bioavailability: below 0.5%

## CC(C)CC(=O)c1c(O)cc2c(c1O)[C@@H](CC(C)C)C1=C(O2)C(C)(C)C(=O)C(C)(C)C1=O [rhodomyrtone, Rhodomyrtone]
[3]; 0 h, 0.1 µg/mL
  Bench-top stability, Accuracy (%): 108.10%
[3]; 0 h, 100 µg/mL
  Bench-top stability, Accuracy (%): 97.34%
[3]; 0 to 8 h, 0.1 and 100 µg/mL
  Bench-top stability, accuracy (range over all time points): 92–109%
[3]; 1 h, 0.1 µg/mL
  Bench-top stability, Accuracy (%): 93.38%
[3]; 1 h, 100 µg/mL
  Bench-top stability, Accuracy (%): 96.58%
[3]; 2 h, 0.1 µg/mL
  Bench-top stability, Accuracy (%): 108.61%
[3]; 2 h, 100 µg/mL
  Bench-top stability, Accuracy (%): 95.97%
[3]; 4 h, 0.1 µg/mL
  Bench-top stability, Accuracy (%): 101.47%
[3]; 4 h, 100 µg/mL
  Bench-top stability, Accuracy (%): 94.58%
[3]; 6 h, 0.1 µg/mL
  Bench-top stability, Accuracy (%): 101.24%
[3]; 8 h, 0.1 µg/mL
  Bench-top stability, Accuracy (%): 95.96%
[4]; male, Sprague Dawley, plasma, rat, oral, 50 to 100 mg/kg, read-out: terminal elimination phase half-life (t1/2) (converted)
  half-life: ~2.5 h
[4]; [12]
  CL/F: 266 mL/min/kg
  AUC(0-t): 2680 ± 1090 ng·h/mL
[4]; male, Sprague Dawley, plasma, rat, single oral dose 50 mg/kg, n = 12, read-out: t1/2 (converted)
  half-life: 2.2 ± 0.74 h
[4]; male, Sprague Dawley, plasma, rat, single oral dose 100 mg/kg, n = 12
  CL/F: 221 mL/min/kg
[4]; male, Sprague Dawley, plasma, rat, single oral dose 100 mg/kg, n = 12, read-out: t1/2 (converted)
  half-life: 2.53 ± 0.92 h
[4]; male, Sprague Dawley, rat, plasma, oral, estimated from SwissADME bioavailability score and AUC, no intravenous data
  bioavailability: ~10%
[4]; male, Sprague Dawley, rat, plasma, 50 mg/kg, rat, single oral dose 50 mg/kg, n = 12, mean ± SD, read-out: Tmax
  Tmax: 1.92 ± 0.29 h
[4]; male, Sprague Dawley, rat, plasma, 50 mg/kg, rat, single oral dose 50 mg/kg, n = 12, read-out: Vz/F
  Vd/F: 48.5 ± 16.9 L/kg
[4]; male, Sprague Dawley, rat, plasma, 100 mg/kg, rat, oral, 50 and 100 mg/kg doses (not significantly different), read-out: apparent total volume of distribution (Vz/F)
  Vd/F: ~50 L/kg
[4]; male, Sprague Dawley, rat, plasma, 100 mg/kg, rat, oral, both 50 and 100 mg/kg doses, read-out: time to maximum plasma concentration (Tmax)
  Tmax: 2 h
[4]; male, Sprague Dawley, rat, plasma, 100 mg/kg, rat, single oral dose 100 mg/kg, n = 12, mean ± SD, read-out: Tmax
  Tmax: 2 h
[4]; male, Sprague Dawley, rat, plasma, 100 mg/kg, rat, single oral dose 100 mg/kg, n = 12, read-out: Vz/F
  Vd/F: 46.6 ± 13.8 L/kg
[4]; male, Sprague Dawley, rat plasma, oral 50 mg/kg, 8 h
  concentration at 8 h: ~100 ng/mL
[4]; male, Sprague Dawley, rat plasma, single oral dose 50 mg/kg, n = 12
  Cmax: 570 ± 120 ng/mL
[4]; male, Sprague Dawley, rat plasma, single oral dose 100 mg/kg, n = 12
  Cmax: 1310 ± 200 ng/mL
[4]; [13]
  AUC(0-inf): 3410 ± 1040 ng·h/mL
  k el: 0.000139 s⁻¹
[4]; [14]
  AUC(0-inf): 7820 ± 1530 ng·h/mL
  AUC(0-t): 6650 ± 1130 ng·h/mL
  k el: 8.33e-05 s⁻¹
[4]; rat plasma, single oral dose 50 mg/kg, n = 12
  Cmin: 140 ± 60 ng/mL
[4]; rat plasma, single oral dose 100 mg/kg, n = 12
  Cmin: 310 ± 90 ng/mL
[4]; rat, oral 50 mg/kg
  time of rhodomyrtone concentrations above MIC (0.5–1 μg/mL) of most staphylococcal isolates: approximately 4 h
[4]; rat, oral 100 mg/kg
  Cmax relative to the MBCs for MRSA (0.03–1.00 μg/mL): 2–3 times
  time of rhodomyrtone concentrations above MIC (0.5–1 μg/mL) of most staphylococcal isolates: ~8 h
[4]; rat, oral, 8 h sampling time
  AUC0–8 as share of AUC0–∞: about 80%
[5]; Day 0, 0.1 µg/mL
  Freeze–thaw stability, Accuracy (%): 110.31%
[5]; Day 0, 100 µg/mL
  Freeze–thaw stability, Accuracy (%): 103.71%
[5]; Day 3 (three cycles −20 °C / 25 °C), 0.1 µg/mL
  Freeze–thaw stability, Accuracy (%): 105.93%
[5]; Day 3 (three cycles −20 °C / 25 °C), 100 µg/mL
  Freeze–thaw stability, Accuracy (%): 108.10%
S. aureus or MRSA
  resistance development: not found to be resistant
MRSA clinical isolated
  MIC: 0.39 to 0.78 µg/mL
Bacillus cereus
  MIC: 0.39 µg/mL (≈ 0.881 µM)
[6]
  LD50: 2000 mg/kg
MRSA
  MBCs: 0.03 to 1.00 µg/mL
Streptococcus mutans
  MIC: 0.19 µg/mL (≈ 0.429 µM)
[7]
  Long-term stability, accuracy: 94–114%
Staphylococcal isolates
  MIC: 0.5 to 1 µg/mL
[8]
  MIC: 0.39 µg/mL (≈ 0.881 µM)
[9]
  MIC: 0.5 to 2 µg/mL
[10]
  MIC: 0.5 µg/mL (≈ 1.13 µM)

## CC(=O)NC[C@H]1CN(c2ccc(N3CCOCC3)c(F)c2)C(=O)O1 [linezolid]
[11]; 50 mg/kg
  Cmax: 25000 ng/mL
[11]
  half-life: 1.1 h
